Measurements reported in PMC8962293, “Synthesis, Structure, and Antiproliferative Action of 2-Pyridyl Urea-Based Cu(II) Complexes” (Biomedicines, 2022).

What was measured:
MTT assay on A549 cells = format: cell-based, human; details: human, A549 lung carcinoma cells, 72 h, read-out: Cell Viability, %; for viability at 72 h, 10 µM: A549, 10 µM; for viability at 72 h, 100 µM: A549, 100 µM
Protocol: (§1) A549, NCI-H460, NCI-H1975 lung cancer cells and WI-26 VA4 lung epithelial-like cells were purchased from the ATCC. A549 cells were maintained in F12-K (Corning, NY, USA) supplemented with 10% fetal bovine serum (Fetal Bovine Serum, qualified, Australia; Gibco, Loughborough, UK), penicillin (100 UI mL^−1), streptomycin (100 µg mL^−1), and GlutaMax (1.9 mM, Gibco, UK). NCI-H460 and NCI-H1975 cells were maintained in RPMI-1640 (ATCC modification) media (Gibco, Loughborough, UK) supplemented with 10% fetal bovine serum (Fetal Bovine Serum, qualified, Australia; Gibco, Loughborough, UK), penicillin (100 UI mL^−1), streptomycin (100 µg mL^−1), and GlutaMax (2 mM, Gibco, UK). WI-26 VA4 cells were maintained in Advanced MEM (Gibco, Loughborough, UK) supplemented with 5% fetal bovine serum (Fetal Bovine Serum, qualified, Australia, Gibco, UK), penicillin (100 UI mL^−1), streptomycin (100 µg mL^−1), and GlutaMax (1.87 mM, Gibco, Loughborough, UK). All cells line cultivation under a humidified atmosphere of 95% air/5% CO2 at 37 °C. Subconfluent monolayers, in the log growth phase, were harvested by a brief treatment with TrypLE Express solution (Gibco, Loughborough, UK) in phosphate buffered saline (PBS, Capricorn Scientific, Germany) and washed three times in serum-free PBS. The number of viable cells was determined by trypan blue exclusion.
(§2) The effects of the synthesized compounds on cell viability were determined using the MTT colorimetric test. All examined cells were diluted with the growth medium to 3.5 × 10^4 cells per mL and the aliquots (7 × 10^3 cells per 200 μL) were placed in individual wells in 96-well plates (Eppendorf, Hamburg, Germany) and incubated for 24 h. The next day, the cells were treated with synthesized compounds separately in concentration 10 and 100 μM (or 200.0 μM concentration and diluted at various concentrations for determination of IC50) and incubated for 72 h at 37 °C in 5% CO2 atmosphere. Each compound was tested in triplicate. After incubation, the cells were treated with 40 μL MTT solution (3-(4,5-dimethylthiazol-2-yl)-2,5-diphenyltetrazolium bromide, 5 mg mL^−1 in PBS) and incubated for 4 h. After additional 4-h incubation, the medium with MTT was removed and DMSO (150 μL) was added to dissolve the formazan crystals. The plates were shaken for 10 min. The optical density of each well was determined at 560 nm using GloMax Multi+ (Promega, Madison, WI, USA) microplate reader. Each of the tested compounds was evaluated for cytotoxicity in three separate experiments. All stock solutions for biological evaluations were prepared via dissolving synthesized compounds in DMSO.

[1] = test system: NCI-H460 non-small cell lung carcinoma cells; experiment: MTT assay on NCI-H460 cells; format: cell-based, human; details: NCI-H460, 72 h
Protocol: as §1, §2

[2] = test system: EGFR-mutant NCI-H1975 non-small cell lung carcinoma cells; experiment: MTT assay on NCI-H1975 cells; format: cell-based, human; details: for IC50: NCI-H1975, 72 h, MTT
Protocol: as §1, §2

[3] = test system: A549 human lung carcinoma cells; experiment: MTT assay on A549 cells; format: cell-based; details: A549, 72 h
Protocol: as §1, §2

[4] = test system: non-cancerous lung fibroblast WI-26 VA4; experiment: MTT assay on WI-26 VA4 cells (non-specific cytotoxicity); format: cell-based, human; details: WI-26 VA4, 72 h
Protocol: as §1, §2

[5] = Molar conductivity in DMSO solution; format: physicochemical; details: DMSO solutions, 25 °C
Protocol: The preparation and characterization of starting pyridine-N-oxides as well as U1–12 are described previously. CuCl2, other reactants, and solvents were obtained from commercial sources. High-resolution mass-spectra (HRMS) were measured on Bruker Maxis HRMS-ESI-qTOF (Electrospray Ionization, ESI; Bruker, Billerica, MA, USA); a MeOH was used as the solvent. The instrument was operated at positive ion mode using m/z range of 50–3000. The capillary voltage of the ion source was set at –4500 V (ESI^+) and the capillary exit at +(70–150) V. The nebulizer gas pressure was 0.4 bar and drying gas flow was 4.0 L/min. The most intensive peak in the isotopic pattern is reported. Infrared spectra (4000–400 cm^–1) were recorded on a Shimadzu FTIR 8400S (Shimadzu, Kyoto, Japan) instrument in KBr pellets. The C, H, and N elemental analyses were carried out on a Leco TruSpec Micro CHNS analyzer (LECO, St. Joseph, MI, USA). TGA was performed on a ca. 2 mg samples of Cu(II) complexes by using a Netzsch TG 209 F1 Libra thermal analyzer (Netzsch, Selb, Germany). The samples were dried under a vacuum at 50 °C before heating from 40 to 450 °C at a heating rate of 10 K min^–1. A flow rate of 10 mL min^–1 of dry argon was used to purge the samples. Molar conductivity was measured with an Elico digital conductivity bridge model CM-88, using a freshly prepared DMSO solution of the complexes.

NCI-H1975 cells [6] = experiment: Annexin V-FITC/PI double staining apoptosis assay; format: cell-based, human; details: NCI-H1975, 50 μM, 48-h incubation
Protocol: For the detection of apoptosis, the cells were placed at 6-well culture plates (Eppendorf, Germany) and allowed to grow overnight. After the cells reached subconfluency, the medium was replaced with tested compounds (25 or 50 μM). The exposed cells were placed at 37 °C in a 5% CO2 incubator for 24 or 48 h. The cultured cells were washed twice with PBS and resuspended in 1× binding buffer (AnnexinV-FITC kit, Invitrogen, Waltham, MA, USA) at a concentration 1 × 10^6 mL^−1. Annexin FITC (5 μL) and propidium iodide (PI, 2 μL) were added to 100 μL of the cell suspension and incubated for 15 min at room temperature (25 °C) in the dark. After incubation, 400 μL of 1× binding buffer was added to each tube and the stained cells were analyzed within 1 h using CytoFlex (Beckman Coulter, Brea, CA, USA) and CytExpert 2.1 program. Since the AnnexinV-FITC staining precedes the loss of membrane integrity that accompanies the later stage identified by PI, Annexin FITC positive, PI negative indicates early apoptosis, while the viable cells are Annexin V FITC negative, PI negative. The cells that are in late apoptosis or dead are both Annexin V FITC and PI positive.

NCI-H1975 cells [7] = experiment: Cell cycle analysis by flow cytometry; format: cell-based, human; details: NCI-H1975, 10, 20, and 35 μM, 48 h
Protocol: For the cell cycle analysis, the cells (1 × 10^6 per well) were placed at 6-well culture plates (Eppendorf, Germany) and allowed to grow overnight. After the medium was replaced with solution tested compounds (10, 20, or 35 μM). The exposed cells were placed at 37 °C in a 5% CO2 incubator for 48 h. After the completion of incubations, cells were harvested by trypsinization, washed with PBS, centrifuged, fixed with 70% ethanol and incubated for 7 h at –20 °C. An aliquot of the pellet (200 µL) was washed with PBS, stained with 200 µL of the Guava Cell Cycle Reagent (Merck, Kenilworth, NJ, USA), and incubated for 30 min at room temperature in the dark. The cell cycle distribution was analyzed by flow cytometry on a CytoFlex (Beckham Coulter, Brea, CA, USA) and CytExpert 2.1 program.

Structure (SMILES) | viability at 72 h, 10 µM (MTT assay on A549 cells) | viability at 72 h, 100 µM (MTT assay on A549 cells) | IC50 [1] | IC50 [2] | IC50 [3] | IC50 [4] | other results
CN(C)C(=O)Nc1ccccn1 [Complex U1] | 100 ± 18% | 86.5 ± 7.5% |  |  |  |  | 
Cc1ccnc(NC(=O)N(C)C)c1 [Complex U2] | 102 ± 2.7% | 98.7 ± 3.8% |  |  |  |  | 
CN(C)C(=O)Nc1cc([N+](=O)[O-])ccn1 [Complex U3] | 95.5 ± 3.3% | 91.6 ± 4.3% |  |  |  |  | 
CN(C)C(=O)Nc1cc(C#N)ccn1 [Complex U4] | 94.2 ± 6.7% | 89 ± 5.1% |  |  |  |  | 
Cc1nc(-c2ccnc(NC(=O)N(C)C)c2)no1 [Complex U5] | 101 ± 5.5% | 90.2 ± 8.7% |  |  |  |  | 
Cc1nnc(-c2ccnc(NC(=O)N(C)C)c2)o1 [Complex U6] | 94.5 ± 7.1% | 89.9 ± 2.4% |  |  |  |  | 
O=C(Nc1ccccn1)N1CCCC1 [Complex U7] | 103 ± 2.8% | 99.8 ± 5.7% |  |  |  |  | 
O=C(Nc1ccccn1)N1CCCCC1 [Complex U8] | 100 ± 9.4% | 97.2 ± 6.1% |  |  |  |  | 
Cc1ccnc(NC(=O)N2CCCCC2)c1 [Complex U9] | 103 ± 6.3% | 98.3 ± 8.1% |  |  |  |  | 
COc1ccnc(NC(=O)N2CCCCC2)c1 [Complex U10] | 102 ± 5.2% | 99.5 ± 8.1% |  |  |  |  | 
O=C(Nc1cc([N+](=O)[O-])ccn1)N1CCCCC1 [Complex U11] | 105 ± 6.7% | 94.3 ± 9% |  |  |  |  | 
Cc1ccnc(NC(=O)N2CCOCC2)c1 [Complex U12] | 97.4 ± 5.5% | 85.4 ± 7.8% |  |  |  |  | 
CN(C)C(=O)Nc1ccccn1.CN(C)C(=O)Nc1ccccn1.[Cl-].[Cl-].[Cu+2] [[Cu(U1)2Cl]^+[Cl]^−] |  |  | 120 ± 18.4 µM | 65.3 ± 10.9 µM | 107 ± 15.1 µM | 108 ± 27.5 µM | 
Cc1ccnc(NC(=O)N(C)C)c1.Cc1ccnc(NC(=O)N(C)C)c1.[Cl-].[Cl-].[Cu+2] [[Cu(U2)2Cl]^+[Cl]^−] |  |  | 122 ± 15.3 µM | 65.4 ± 8.6 µM | 94.5 ± 14.1 µM | 101 ± 15.1 µM | Molar conductivity [5]: 24.8 Ω^−1·cm^2·mol^−1
CN(C)C(=O)Nc1cc([N+](=O)[O-])ccn1.CN(C)C(=O)Nc1cc([N+](=O)[O-])ccn1.[Cl-].[Cl-].[Cu+2] [[Cu(U3)2Cl2]] |  |  | 77.5 ± 6.4 µM | 39.6 ± 4.5 µM | 61.4 ± 6.52 µM | 81.6 ± 10.1 µM | percentage of dead cells (NCI-H1975 cells [6]; control 0.28%): 2.87%; percent of Annexin V FITC-positive early apoptotic cells (NCI-H1975 cells [6]; control 5.25%): 16.30%; late apoptotic fraction in cell population (NCI-H1975 cells [6]; control 12.02%): 22.38%; selectivity over the healthy human cells WI-26 VA4 ([2]; NCI-H1975 vs WI-26 VA4): the most selective; cells trapped in the G2 phase (NCI-H1975 cells [7]): profound increase; number of cells in the G1 phase (NCI-H1975 cells [7]): remarkable drop; Molar conductivity [5]: 24.1 Ω^−1·cm^2·mol^−1
CN(C)C(=O)Nc1cc(C#N)ccn1.CN(C)C(=O)Nc1cc(C#N)ccn1.[Cl-].[Cl-].[Cu+2] [[Cu(U4)2Cl]^+[Cl]^−] |  |  | 118 ± 13.4 µM | 68.3 ± 8.5 µM | 106 ± 12.2 µM | 109 ± 16.4 µM | Molar conductivity [5]: 25.2 Ω^−1·cm^2·mol^−1
Cc1nc(-c2ccnc(NC(=O)N(C)C)c2)no1.Cc1nc(-c2ccnc(NC(=O)N(C)C)c2)no1.[Cl-].[Cl-].[Cu+2] [[Cu(U5)2Cl]^+[Cl]^−] |  |  | 136 ± 12.5 µM | 71.2 ± 6.9 µM | 114 ± 14.5 µM | 118 ± 24.9 µM | 
Cc1nnc(-c2ccnc(NC(=O)N(C)C)c2)o1.Cc1nnc(-c2ccnc(NC(=O)N(C)C)c2)o1.[Cl-].[Cl-].[Cu+2] [[Cu(U6)2Cl]^+[Cl]^−] |  |  | 115 ± 26.3 µM | 63.8 ± 8.7 µM | 88.7 ± 12.7 µM | 105 ± 14.1 µM | 
O=C(Nc1ccccn1)N1CCCC1.O=C(Nc1ccccn1)N1CCCC1.[Cl-].[Cl-].[Cu+2] [[Cu(U7)2Cl]^+[Cl]^−] |  |  | 103 ± 13.1 µM | 66.7 ± 7.6 µM | 102 ± 15.8 µM | 100 ± 16.6 µM | 
O=C(Nc1ccccn1)N1CCCCC1.O=C(Nc1ccccn1)N1CCCCC1.[Cl-].[Cl-].[Cu+2] [[Cu(U8)2Cl]^+[Cl]^−] |  |  | 102 ± 17.3 µM | 64.4 ± 10.5 µM | 98.4 ± 11.1 µM | 111 ± 19.3 µM | 
Cc1ccnc(NC(=O)N2CCCCC2)c1.Cc1ccnc(NC(=O)N2CCCCC2)c1.[Cl-].[Cl-].[Cu+2] [[Cu(U9)2Cl]^+[Cl]^−] |  |  | 66.4 ± 5.7 µM | 61.6 ± 6 µM | 76.1 ± 8.86 µM | 113 ± 23.5 µM | 
O=C(Nc1cc([N+](=O)[O-])ccn1)N1CCCCC1.O=C(Nc1cc([N+](=O)[O-])ccn1)N1CCCCC1.[Cl-].[Cl-].[Cu+2] [[Cu(U11)2Cl2]] |  |  | 53.6 ± 4.7 µM | 33.4 ± 3.8 µM | 46 ± 4.98 µM | 62.4 ± 5.6 µM | Molar conductivity [5]: 21.7 Ω^−1·cm^2·mol^−1
Cc1ccnc(NC(=O)N2CCOCC2)c1.Cc1ccnc(NC(=O)N2CCOCC2)c1.[Cl-].[Cl-].[Cu+2] [[Cu(U12)2Cl]^+[Cl]^−] |  |  | 128 ± 19.5 µM | 70.2 ± 4.9 µM | 89.3 ± 6.67 µM | 109 ± 13.7 µM | 
